Experimental data published in patent US10870647B2, “Imidazopyridine derivative, method for preparing same, and pharmaceutical composition containing same as active ingredient for preventing or treating cancer” (DAEGU-GYEONGBUK MEDICAL INNOVATION FOUNDATION, priority 2016, dated 2020).
Read-outs that look alike come from different tables or passages of the source.

Assays:
Test in all cases: Kinase selectivity, scanMAX Kinase assay panel (DiscoverX), % control at 1 uM
Type in all cases: binding
[1] = target: T1, scanMAX Kinase assay panel (Homo sapiens, UniProt Q8TDX7); details: NEK7; 1 uM; read-out: Percent Control (%)
T1 construct: purchased DiscoverX
Outline: (§1)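 Each kinase was first exposed to the test compound at 1 uM in DMSO. Signal was then normalised to positive and negative controls to give % control. Finally, any enzyme showing <35% control was judged inhibited.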

[2] = target: T2, scanMAX Kinase assay panel (Homo sapiens, UniProt Q9Y2H1); details: NDR2; 1 uM; read-out: Percent Control (%)
T2 construct: purchased DiscoverX
Outline: as §1

[3] = target: T3, scanMAX Kinase assay panel (Homo sapiens, UniProt P00519, H396P); details: 1 uM, read-out: Percent Control (%)
T3 construct: purchased DiscoverX
Outline: as §1

[4] = target: T4, scanMAX Kinase assay panel (Homo sapiens, UniProt P54760); details: EPHB4; 1 uM; read-out: Percent Control (%)
T4 construct: purchased DiscoverX
T4 sequence (P54760 16-987): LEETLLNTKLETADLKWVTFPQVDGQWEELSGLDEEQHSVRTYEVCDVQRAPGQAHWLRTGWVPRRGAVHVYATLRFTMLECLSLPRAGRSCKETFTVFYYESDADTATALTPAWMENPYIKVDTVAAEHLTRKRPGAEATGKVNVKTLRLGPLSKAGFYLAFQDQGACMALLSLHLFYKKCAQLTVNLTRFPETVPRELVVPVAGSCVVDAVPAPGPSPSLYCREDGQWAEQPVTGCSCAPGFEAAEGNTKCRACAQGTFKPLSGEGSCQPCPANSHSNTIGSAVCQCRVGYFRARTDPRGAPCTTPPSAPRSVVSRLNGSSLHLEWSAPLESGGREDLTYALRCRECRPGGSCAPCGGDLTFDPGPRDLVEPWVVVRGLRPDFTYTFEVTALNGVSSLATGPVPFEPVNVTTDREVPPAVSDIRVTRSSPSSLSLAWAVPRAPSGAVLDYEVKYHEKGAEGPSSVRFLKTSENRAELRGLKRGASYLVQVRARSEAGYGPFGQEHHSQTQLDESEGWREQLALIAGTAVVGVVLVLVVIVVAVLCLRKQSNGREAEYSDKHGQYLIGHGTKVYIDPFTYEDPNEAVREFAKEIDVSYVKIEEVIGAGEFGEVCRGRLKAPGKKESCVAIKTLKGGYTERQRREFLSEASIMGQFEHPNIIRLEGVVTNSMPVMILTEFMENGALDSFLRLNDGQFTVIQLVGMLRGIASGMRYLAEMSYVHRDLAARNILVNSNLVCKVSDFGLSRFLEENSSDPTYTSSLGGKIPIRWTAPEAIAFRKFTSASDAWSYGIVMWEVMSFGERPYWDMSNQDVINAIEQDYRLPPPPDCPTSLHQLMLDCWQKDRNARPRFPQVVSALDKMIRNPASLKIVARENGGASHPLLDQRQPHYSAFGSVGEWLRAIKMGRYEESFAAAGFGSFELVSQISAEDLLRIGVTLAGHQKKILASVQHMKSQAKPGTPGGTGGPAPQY
Outline: as §1

[5] = target: T5, scanMAX Kinase assay panel (Homo sapiens, UniProt P49674); details: CSNK1E; 1 uM; read-out: Percent Control (%)
T5 construct: purchased DiscoverX
Outline: as §1

[6] = target: T6, scanMAX Kinase assay panel (Homo sapiens, UniProt Q12851); details: MAP4K2; 1 uM; read-out: Percent Control (%)
T6 construct: purchased DiscoverX
T6 sequence (Q12851 1-820): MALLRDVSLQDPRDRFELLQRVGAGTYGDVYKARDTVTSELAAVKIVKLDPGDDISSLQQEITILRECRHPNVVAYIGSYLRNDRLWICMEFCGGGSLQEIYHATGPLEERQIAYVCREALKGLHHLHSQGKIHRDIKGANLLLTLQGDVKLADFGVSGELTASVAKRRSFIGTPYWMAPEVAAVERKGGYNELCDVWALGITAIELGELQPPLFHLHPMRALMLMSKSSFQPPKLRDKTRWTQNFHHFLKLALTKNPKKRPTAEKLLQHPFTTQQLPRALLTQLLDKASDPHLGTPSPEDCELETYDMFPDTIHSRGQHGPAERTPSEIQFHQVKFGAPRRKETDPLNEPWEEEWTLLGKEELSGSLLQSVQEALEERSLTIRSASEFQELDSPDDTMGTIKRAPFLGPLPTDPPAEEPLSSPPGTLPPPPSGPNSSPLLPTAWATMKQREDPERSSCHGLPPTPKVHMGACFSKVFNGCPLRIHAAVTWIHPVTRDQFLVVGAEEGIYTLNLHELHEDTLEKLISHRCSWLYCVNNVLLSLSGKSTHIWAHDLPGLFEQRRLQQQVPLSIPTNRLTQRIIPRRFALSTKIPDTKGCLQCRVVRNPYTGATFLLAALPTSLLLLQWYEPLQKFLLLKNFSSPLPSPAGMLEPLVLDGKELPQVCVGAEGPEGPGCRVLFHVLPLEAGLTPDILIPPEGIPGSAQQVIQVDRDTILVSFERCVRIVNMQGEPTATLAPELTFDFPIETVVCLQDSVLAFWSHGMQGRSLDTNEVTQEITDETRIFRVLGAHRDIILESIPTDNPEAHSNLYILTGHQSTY
Outline: as §1

[7] = target: T7, scanMAX Kinase assay panel (Homo sapiens, UniProt P00519, M351T); details: ABL1 (M351T)-phosphorylated; 1 uM; read-out: Percent Control (%)
T7 construct: purchased DiscoverX
Outline: as §1

T5 sequence (P49674 whole entry): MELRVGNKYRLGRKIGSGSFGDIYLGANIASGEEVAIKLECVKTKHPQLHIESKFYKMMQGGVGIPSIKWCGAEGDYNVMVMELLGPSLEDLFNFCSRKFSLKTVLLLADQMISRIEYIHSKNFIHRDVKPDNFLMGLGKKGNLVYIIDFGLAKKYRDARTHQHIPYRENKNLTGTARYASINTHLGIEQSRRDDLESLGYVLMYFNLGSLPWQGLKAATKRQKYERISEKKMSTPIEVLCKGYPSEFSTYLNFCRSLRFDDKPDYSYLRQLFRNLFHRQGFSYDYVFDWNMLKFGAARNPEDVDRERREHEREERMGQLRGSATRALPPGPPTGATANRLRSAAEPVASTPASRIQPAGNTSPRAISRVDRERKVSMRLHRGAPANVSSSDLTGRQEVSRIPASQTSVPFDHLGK
T1 sequence (Q8TDX7 whole entry): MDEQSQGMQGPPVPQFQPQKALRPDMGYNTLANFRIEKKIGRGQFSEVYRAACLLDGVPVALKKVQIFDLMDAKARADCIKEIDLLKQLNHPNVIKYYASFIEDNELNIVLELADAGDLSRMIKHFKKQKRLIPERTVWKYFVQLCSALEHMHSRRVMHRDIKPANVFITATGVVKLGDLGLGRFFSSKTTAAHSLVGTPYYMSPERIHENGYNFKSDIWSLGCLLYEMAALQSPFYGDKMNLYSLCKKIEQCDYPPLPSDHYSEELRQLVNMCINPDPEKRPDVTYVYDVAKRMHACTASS
T2 sequence (Q9Y2H1 whole entry): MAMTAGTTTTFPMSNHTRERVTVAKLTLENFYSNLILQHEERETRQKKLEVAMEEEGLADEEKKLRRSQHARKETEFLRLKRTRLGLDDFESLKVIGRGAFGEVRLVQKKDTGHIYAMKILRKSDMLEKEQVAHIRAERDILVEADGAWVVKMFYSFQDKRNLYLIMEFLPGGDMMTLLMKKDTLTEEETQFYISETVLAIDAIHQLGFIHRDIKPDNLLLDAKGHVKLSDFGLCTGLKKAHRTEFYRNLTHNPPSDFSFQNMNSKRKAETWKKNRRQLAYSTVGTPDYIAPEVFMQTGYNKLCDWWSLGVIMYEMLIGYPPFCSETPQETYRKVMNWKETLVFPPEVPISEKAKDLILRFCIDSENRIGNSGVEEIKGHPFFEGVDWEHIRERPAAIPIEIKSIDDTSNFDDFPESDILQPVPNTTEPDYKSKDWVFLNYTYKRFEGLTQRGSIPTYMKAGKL

Compound | remaining binding at 1 µM [1] [%] | remaining binding at 1 µM [2] [%] | remaining binding at 1 µM ([3]; ABL1 (H396P)-nonphosphorylated) [%] | remaining binding at 1 µM ([3]; ABL1 (H396P)-phosphorylated) [%] | remaining binding at 1 µM [4] [%] | remaining binding at 1 µM [5] [%] | remaining binding at 1 µM [6] [%] | remaining binding at 1 µM [7] [%]
Cc1ccc(C(=O)Nc2ccc(CN3CCN(C)CC3)c(C(F)(F)F)c2)cc1C#Cc1cnc2c(Nc3cnn(C)c3)cccn12 [Example 1, 4-methyl-3-((8-((1-methyl-1H-pyrazol-4-yl)amino)imidazo[1,2-a]pyridin-3-yl)ethynyl)-N-(4-((4-methylpiperazin-1-yl)methyl)-3-(trifluoromethyl)phenyl)benzamide] | 71 | 23 | 1 | 0 | 3 | 90 | 1 | 1
Cc1cn(-c2cc(NC(=O)c3ccc(C)c(C#Cc4cnc5c(Nc6cnn(C)c6)cccn45)c3)cc(C(F)(F)F)c2)cn1 [Example 12, 4-methyl-N-(3-(4-methyl-1H-imidazol-1-yl)-5-(trifluoromethyl)phenyl)-3-((8-((1-methyl-1H-pyrazol-4-yl)amino)imidazo[1,2-a]pyridin-3-yl)ethynyl)benzamide] | 82 | 84 | 0 | 10 | 41 | 99 | 98 | 11
Cc1ccc(NC(=O)C2(C(=O)Nc3ccc(F)cc3)CC2)cc1C#Cc1cnc2c(Nc3cnn(C(C)C)c3)cccn12 [Example 78] | 100 | 98 | 4 | 64 | 100 | 94 | 100 | 59
